We go through 21 compounds from article PMC11206203, “Peptide macrocyclisation via intramolecular interception of visible-light-mediated desulfurisation” (Chemical Science, 2024).

Data set [1] in a line: Same desulfurative C-C cyclisation as series A (TCEP, Ir photocatalyst, blue light) with N-terminal Cys and C-terminal allylglycine (reversed pentapeptides). The settings on record: the molecule shown is the open-chain precursor; 17-membered ring; 6 M Gdn.HCl, 0.1 M Na2HPO4 pH 7.5-8.0 / MeCN 9:1; 0.5 mM; 25.0 °C.
Data set [2] in a line: C(sp3)-C(sp3) bond formation by visible-light-mediated Cys desulfurisation: alanyl radical adds to terminal alkene of allylglycine (or O-allyl Ser, pentenylGly, acrylamide); TCEP 50 eq (25 mM), (Ir[dF(CF3)ppy]2(dtbpy))PF6 1 mol%, 450 nm blue LED; unprotected peptides. The settings on record: 6 M Gdn.HCl, 0.1 M Na2HPO4 pH 7.5-8.0 / MeCN 9:1, 0.5 mM, 25.0 °C.

The compound `C=CC[C@H](NC(=O)[C@H](CCC(=O)O)NC(=O)[C@H](Cc1ccccc1)NC(=O)[C@H](C)NC(=O)[C@H](CS)NC(C)=O)C(N)=O` [Ac-Cys-Ala-Phe-Glu-(allylGly)-NH2] came in with a ring closure, conversion by HPLC in data set [1] of 0%.
On the same count and under the same terms, as for `C=CC[C@H](NC(=O)[C@H](CCCNC(=N)N)NC(=O)[C@H](Cc1c[nH]c2ccccc12)NC(=O)[C@@H](NC(=O)[C@H](CS)NC(C)=O)[C@@H](C)CC)C(N)=O` [Ac-Cys-Ile-Trp-Arg-(allylGly)-NH2], the figure is 7%; as for `C=CC[C@H](NC(=O)[C@H](CCSC)NC(=O)[C@H](Cc1ccc(O)cc1)NC(=O)[C@H](CC(C)C)NC(=O)[C@H](CS)NC(C)=O)C(N)=O` [Ac-Cys-Leu-Tyr-Met-(allylGly)-NH2], 21%; as for `C=CC[C@H](NC(=O)[C@H](CCCCN)NC(=O)[C@@H]1CCCN1C(=O)[C@@H](NC(=O)[C@H](CS)NC(C)=O)[C@@H](C)O)C(N)=O` [Ac-Cys-Thr-Pro-Lys-(allylGly)-NH2], 0%.
Same read-out and setting: then `C=CC[C@H](NC(=O)[C@H](CCC(N)=O)NC(=O)[C@H](Cc1c[nH]cn1)NC(=O)[C@@H](NC(=O)[C@H](CS)NC(C)=O)C(C)C)C(N)=O` [Ac-Cys-Val-His-Gln-(allylGly)-NH2], with 28%.
Regarding `C[C@@H]1NC(=O)[C@H](Cc2ccccc2)NC(=O)[C@H](C)NC(=O)[C@@H](N)CCCCCC[C@@H](C(N)=O)NC1=O` [H-(4-pentenylGly)-Ala-Phe-Ala-Cys-NH2], in data set [2] (from C=CCCC[C@H](N)C(=O)N[C@@H](C)C(=O)N[C@@H](Cc1ccccc1)C(=O)N[C@@H](C)C(=O)N[C@@H](CS)C(N)=O, 19-membered ring, 1.0 h), the ring closure, isolated yield was 32%.
`C[C@@H]1NC(=O)[C@H](Cc2ccccc2)NC(=O)[C@H](C)NC(=O)[C@@H](N)CCCC[C@@H](C(N)=O)NC1=O` [H-(allylGly)-Ala-Phe-Ala-Cys-NH2] gave a ring closure, isolated yield in data set [2] (from C=CC[C@H](N)C(=O)N[C@@H](C)C(=O)N[C@@H](Cc1ccccc1)C(=O)N[C@@H](C)C(=O)N[C@@H](CS)C(N)=O, 17-membered ring, 0.75 h) of 79%.
For the compound `CSCC[C@@H]1NC(=O)[C@@H]2CCCN2C(=O)[C@H](CCCNC(=N)N)NC(=O)[C@@H](N)CCCC[C@@H](C(N)=O)NC(=O)[C@H](Cc2c[nH]cn2)NC1=O` [H-(allylGly)-Arg-Pro-Met-His-Cys-NH2], in data set [2] (from C=CC[C@H](N)C(=O)N[C@@H](CCCNC(=N)N)C(=O)N1CCC[C@H]1C(=O)N[C@@H](CCSC)C(=O)N[C@@H](Cc1c[nH]cn1)C(=O)N[C@@H](CS)C(N)=O, 20-membered ring), the ring closure, isolated yield came out at 0%.
Regarding `NCCCC[C@@H]1NC(=O)[C@H](CC(=O)O)NC(=O)[C@@H](N)CCCC[C@@H](C(N)=O)NC(=O)[C@H](CCC(=O)O)NC(=O)[C@H](Cc2c[nH]cn2)NC(=O)[C@H](CC(N)=O)NC(=O)[C@H](Cc2ccccc2)NC1=O` [H-(allylGly)-Asp-Lys-Phe-Asn-His-Glu-Cys-NH2], in data set [2] (from C=CC[C@H](N)C(=O)N[C@@H](CC(=O)O)C(=O)N[C@@H](CCCCN)C(=O)N[C@@H](Cc1ccccc1)C(=O)N[C@@H](CC(N)=O)C(=O)N[C@@H](Cc1c[nH]cn1)C(=O)N[C@@H](CCC(=O)O)C(=O)N[C@@H](CS)C(N)=O, 26-membered ring), the ring closure, isolated yield came out at 70%.
As to `CC(C)C[C@@H]1NC(=O)[C@H](CC(=O)O)NC(=O)[C@H](CCC(=O)O)NC(=O)[C@@H](N)CCCC[C@@H](C(N)=O)NC(=O)[C@H](CCC(N)=O)NC(=O)[C@H](Cc2ccc(O)cc2)NC(=O)[C@H](Cc2ccccc2)NC1=O` [H-(allylGly)-Glu-Asp-Leu-Phe-Tyr-Gln-Cys-NH2], in data set [2] (from C=CC[C@H](N)C(=O)N[C@@H](CCC(=O)O)C(=O)N[C@@H](CC(=O)O)C(=O)N[C@@H](CC(C)C)C(=O)N[C@@H](Cc1ccccc1)C(=O)N[C@@H](Cc1ccc(O)cc1)C(=O)N[C@@H](CCC(N)=O)C(=O)N[C@@H](CS)C(N)=O, 26-membered ring), the ring closure, isolated yield was 65%.
`CSCC[C@@H]1NC(=O)[C@H](Cc2ccc(O)cc2)NC(=O)[C@H](CC(C)C)NC(=O)[C@@H](N)CCCC[C@@H](C(N)=O)NC1=O` [H-(allylGly)-Leu-Tyr-Met-Cys-NH2] registered a ring closure, isolated yield in data set [2] (from C=CC[C@H](N)C(=O)N[C@@H](CC(C)C)C(=O)N[C@@H](Cc1ccc(O)cc1)C(=O)N[C@@H](CCSC)C(=O)N[C@@H](CS)C(N)=O, 17-membered ring) of 54%.
Turning to `CSCC[C@@H]1NC(=O)[C@@H](N)CCCC[C@@H](C(N)=O)NC(=O)[C@H](CCCCN)NC(=O)[C@H](CCC(=O)O)NC(=O)[C@H](CC(C)C)NC(=O)[C@H](C)NC1=O` [H-(allylGly)-Met-Ala-Leu-Glu-Lys-Cys-NH2], the ring closure, isolated yield in data set [2] (from C=CC[C@H](N)C(=O)N[C@@H](CCSC)C(=O)N[C@@H](C)C(=O)N[C@@H](CC(C)C)C(=O)N[C@@H](CCC(=O)O)C(=O)N[C@@H](CCCCN)C(=O)N[C@@H](CS)C(N)=O, 23-membered ring) was found to be 44%.
In data set [2] (from C=CC[C@H](N)C(=O)N[C@@H](CCSC)C(=O)N1CCC[C@H]1C(=O)N[C@@H](Cc1c[nH]c2ccccc12)C(=O)N[C@@H](CC(C)C)C(=O)N[C@@H](CCCNC(=N)N)C(=O)N[C@@H](CS)C(N)=O, 23-membered ring), `CSCC[C@@H]1NC(=O)[C@@H](N)CCCC[C@@H](C(N)=O)NC(=O)[C@H](CCCNC(=N)N)NC(=O)[C@H](CC(C)C)NC(=O)[C@H](Cc2c[nH]c3ccccc23)NC(=O)[C@@H]2CCCN2C1=O` [H-(allylGly)-Met-Pro-Trp-Leu-Arg-Cys-NH2] gave a ring closure, isolated yield of 65%.
`CC[C@H](C)[C@@H]1NC(=O)[C@H](Cc2ccc(O)cc2)NC(=O)[C@@H](N)CCCC[C@@H](C(=O)N2CCC[C@H]2C(=O)N[C@@H](CC(C)C)C(=O)NCC(N)=O)NC(=O)[C@H](CC(N)=O)NC(=O)[C@H](CCC(N)=O)NC1=O` [H-(allylGly)-Tyr-Ile-Gln-Asn-Cys-Pro-Leu-Gly-NH2] showed a ring closure, isolated yield in data set [2] (from C=CC[C@H](N)C(=O)N[C@@H](Cc1ccc(O)cc1)C(=O)N[C@H](C(=O)N[C@@H](CCC(N)=O)C(=O)N[C@@H](CC(N)=O)C(=O)N[C@@H](CS)C(=O)N1CCC[C@H]1C(=O)N[C@@H](CC(C)C)C(=O)NCC(N)=O)[C@@H](C)CC, 20-membered ring) of 0%.
For `NC(=O)CC[C@@H]1NC(=O)[C@H](Cc2ccc(O)cc2)NC(=O)[C@H](Cc2ccccc2)NC(=O)[C@@H](NC(=O)[C@@H](N)CC(=O)O)CCCC[C@@H](C(N)=O)NC1=O` [H-Asp-(allylGly)-Phe-Tyr-Gln-Cys-NH2], the ring closure, isolated yield in data set [2] (from C=CC[C@H](NC(=O)[C@@H](N)CC(=O)O)C(=O)N[C@@H](Cc1ccccc1)C(=O)N[C@@H](Cc1ccc(O)cc1)C(=O)N[C@@H](CCC(N)=O)C(=O)N[C@@H](CS)C(N)=O, 17-membered ring) came out at 82%.
With `C=CC[C@H](NC(=O)[C@H](CCC(=O)O)NC(=O)[C@H](Cc1ccccc1)NC(=O)[C@H](C)NC(=O)[C@@H](N)CS)C(N)=O` [H-Cys-Ala-Phe-Glu-(allylGly)-NH2], the ring closure, conversion by HPLC in data set [1] amounted to 25%.
Take `C=CC[C@H](NC(=O)[C@H](CCCNC(=N)N)NC(=O)[C@H](Cc1c[nH]c2ccccc12)NC(=O)[C@@H](NC(=O)[C@@H](N)CS)[C@@H](C)CC)C(N)=O` [H-Cys-Ile-Trp-Arg-(allylGly)-NH2]: the ring closure, conversion by HPLC in data set [1] came out at 0%.
Compound `C=CC[C@H](NC(=O)[C@H](CCSC)NC(=O)[C@H](Cc1ccc(O)cc1)NC(=O)[C@H](CC(C)C)NC(=O)[C@@H](N)CS)C(N)=O` [H-Cys-Leu-Tyr-Met-(allylGly)-NH2] came in with a ring closure, conversion by HPLC in data set [1] of 0%.
In data set [2] (from C=CC[C@H](NC(=O)[C@H](CC(N)=O)NC(=O)[C@H](CCC(N)=O)NC(=O)[C@@H](NC(=O)[C@H](Cc1ccc(O)cc1)NC(=O)[C@@H](N)CS)[C@@H](C)CC)C(=O)N1CCC[C@H]1C(=O)N[C@@H](CC(C)C)C(=O)NCC(N)=O, 20-membered ring), `CC[C@H](C)[C@@H]1NC(=O)[C@H](Cc2ccc(O)cc2)NC(=O)[C@@H](N)CCCC[C@@H](C(=O)N2CCC[C@H]2C(=O)N[C@@H](CC(C)C)C(=O)NCC(N)=O)NC(=O)[C@H](CC(N)=O)NC(=O)[C@H](CCC(N)=O)NC1=O` [H-Cys-Tyr-Ile-Gln-Asn-(allylGly)-Pro-Leu-Gly-NH2] showed a ring closure, isolated yield of 52%.
As for `CC1CC[C@@H](C(N)=O)NC(=O)[C@H](C)NC(=O)[C@H](Cc2ccccc2)NC(=O)[C@H](C)NC(=O)[C@@H](N)COC1` (stereo partly drawn) [H-Ser(O-2-methylallyl)-Ala-Phe-Ala-Cys-NH2], the ring closure, isolated yield in data set [2] (from C=C(C)COC[C@H](N)C(=O)N[C@@H](C)C(=O)N[C@@H](Cc1ccccc1)C(=O)N[C@@H](C)C(=O)N[C@@H](CS)C(N)=O, 19-membered ring, 0.17 h) worked out at 77%.
As to `C[C@@H]1NC(=O)[C@H](Cc2ccccc2)NC(=O)[C@H](C)NC(=O)[C@@H](N)COCCCC[C@@H](C(N)=O)NC1=O` [H-Ser(OAllyl)-Ala-Phe-Ala-Cys-NH2], in data set [2] (from C=CCOC[C@H](N)C(=O)N[C@@H](C)C(=O)N[C@@H](Cc1ccccc1)C(=O)N[C@@H](C)C(=O)N[C@@H](CS)C(N)=O, 19-membered ring, 1.0 h), the ring closure, isolated yield came to 78%.
